In US9434610B2, “HPMA—docetaxel conjugates and uses therefore” (REXAHN PHARMACEUTICALS, INC., priority 2008, dated 2016):

How the values were obtained:
[1] = tested on: PANC-1 (pancreas); test: In vitro cell proliferation (SRB) assay, PANC-1; assay type: cell-based; settings: Homo sapiens, 96 hours, drug equivalent
Procedure: (§1) Cancer cell lines to determine the effect of HPMA-drug conjugates were obtained from the following sources: Human MDA-MB-231 (breast), HCT116 (colon) and PANC-1 (pancreas), from the American Type Culture Collection (ATCC) (Manassas, Va.). UMRC2 (kidney) from United States National Cancer Institute (Bethesda, Md.). Cells were maintained in Dulbecco's modified Eagle's medium (“DMEM”, Invitrogen) supplemented with 10% FBS, P/S and 10 mM HEPES. All cells were incubated at 37° C. under humidified 5% CO2.
(§2) The growth inhibition assay of HPMA-drug conjugates against human cancer cell lines was performed using the Sulforhodamine B (“SRB”) method (Skehan et al., J. National Cancer Institute, 82: 1107-1112 (1990)). […] After 5 minutes agitation in 10 mM Tris solution, the absorbance of each well was measured at 530 nm using Benchmark Plus Microplate reader (Bio-Rad Laboratories, Hercules, Calif.). The absorbance value provides a direct measure of the number of live cells post-treatment with HPMA copolymer-drug conjugates.
(§3) To translate the OD530 values into the number of live cells in each well, the OD530 values were compared to those on standard OD530-versus-cell number curves generated for each cell line. The percent survival was calculated using the formula: % Survival=live cell number[test]/live cell number[control]×100
(§4) The IC50 values were calculated by non-linear regression analysis.

[2] = tested on: UMRC2 (kidney); test: In vitro cell proliferation (SRB) assay, UMRC2; assay type: cell-based; settings: Homo sapiens, 96 hours, drug equivalent
Procedure: as §1, §2, §3, §4

[3] = tested on: MDA-MB-231 (breast); test: In vitro cell proliferation (SRB) assay, MDA-MB-231; assay type: cell-based; settings: Homo sapiens, 96 hours, drug equivalent
Procedure: as §1, §2, §3, §4

[4] = tested on: HCT116 (colon); test: In vitro cell proliferation (SRB) assay, HCT116; assay type: cell-based; settings: Homo sapiens, HCT-116, 96 hours, drug equivalent
Procedure: as §1, §2, §3, §4

[5] = target: glycosylphosphatidylinositol-linked folate receptor (FR); settings: high affinity folate receptor; cited from earlier work
[6] = target: T1, reduced folate carrier (Homo sapiens, UniProt P41440); settings: low affinity reduced folate carrier, cellular uptake; cited from earlier work
T1 sequence (P41440 1-591): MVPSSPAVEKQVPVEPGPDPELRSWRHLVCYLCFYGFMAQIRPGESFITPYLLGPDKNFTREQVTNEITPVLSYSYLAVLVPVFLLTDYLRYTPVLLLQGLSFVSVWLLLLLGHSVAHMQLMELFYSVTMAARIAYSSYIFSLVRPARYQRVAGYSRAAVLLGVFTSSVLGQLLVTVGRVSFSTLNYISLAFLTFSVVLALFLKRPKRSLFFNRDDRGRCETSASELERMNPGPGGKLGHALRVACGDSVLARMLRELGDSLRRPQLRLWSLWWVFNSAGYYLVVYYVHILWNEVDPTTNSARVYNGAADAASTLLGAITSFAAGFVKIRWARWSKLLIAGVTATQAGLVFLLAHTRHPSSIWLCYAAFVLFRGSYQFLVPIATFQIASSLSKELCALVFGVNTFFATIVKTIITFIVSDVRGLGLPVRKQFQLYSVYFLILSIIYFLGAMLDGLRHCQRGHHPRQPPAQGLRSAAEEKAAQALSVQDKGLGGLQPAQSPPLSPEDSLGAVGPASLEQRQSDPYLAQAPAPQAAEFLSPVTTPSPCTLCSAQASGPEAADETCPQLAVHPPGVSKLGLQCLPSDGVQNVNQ

[7] = target: mucin-1 (Homo sapiens, UniProt P15941); settings: specific ligand of mucin-1; cited from earlier work
Chain of mucin-1 (P15941 24-1255): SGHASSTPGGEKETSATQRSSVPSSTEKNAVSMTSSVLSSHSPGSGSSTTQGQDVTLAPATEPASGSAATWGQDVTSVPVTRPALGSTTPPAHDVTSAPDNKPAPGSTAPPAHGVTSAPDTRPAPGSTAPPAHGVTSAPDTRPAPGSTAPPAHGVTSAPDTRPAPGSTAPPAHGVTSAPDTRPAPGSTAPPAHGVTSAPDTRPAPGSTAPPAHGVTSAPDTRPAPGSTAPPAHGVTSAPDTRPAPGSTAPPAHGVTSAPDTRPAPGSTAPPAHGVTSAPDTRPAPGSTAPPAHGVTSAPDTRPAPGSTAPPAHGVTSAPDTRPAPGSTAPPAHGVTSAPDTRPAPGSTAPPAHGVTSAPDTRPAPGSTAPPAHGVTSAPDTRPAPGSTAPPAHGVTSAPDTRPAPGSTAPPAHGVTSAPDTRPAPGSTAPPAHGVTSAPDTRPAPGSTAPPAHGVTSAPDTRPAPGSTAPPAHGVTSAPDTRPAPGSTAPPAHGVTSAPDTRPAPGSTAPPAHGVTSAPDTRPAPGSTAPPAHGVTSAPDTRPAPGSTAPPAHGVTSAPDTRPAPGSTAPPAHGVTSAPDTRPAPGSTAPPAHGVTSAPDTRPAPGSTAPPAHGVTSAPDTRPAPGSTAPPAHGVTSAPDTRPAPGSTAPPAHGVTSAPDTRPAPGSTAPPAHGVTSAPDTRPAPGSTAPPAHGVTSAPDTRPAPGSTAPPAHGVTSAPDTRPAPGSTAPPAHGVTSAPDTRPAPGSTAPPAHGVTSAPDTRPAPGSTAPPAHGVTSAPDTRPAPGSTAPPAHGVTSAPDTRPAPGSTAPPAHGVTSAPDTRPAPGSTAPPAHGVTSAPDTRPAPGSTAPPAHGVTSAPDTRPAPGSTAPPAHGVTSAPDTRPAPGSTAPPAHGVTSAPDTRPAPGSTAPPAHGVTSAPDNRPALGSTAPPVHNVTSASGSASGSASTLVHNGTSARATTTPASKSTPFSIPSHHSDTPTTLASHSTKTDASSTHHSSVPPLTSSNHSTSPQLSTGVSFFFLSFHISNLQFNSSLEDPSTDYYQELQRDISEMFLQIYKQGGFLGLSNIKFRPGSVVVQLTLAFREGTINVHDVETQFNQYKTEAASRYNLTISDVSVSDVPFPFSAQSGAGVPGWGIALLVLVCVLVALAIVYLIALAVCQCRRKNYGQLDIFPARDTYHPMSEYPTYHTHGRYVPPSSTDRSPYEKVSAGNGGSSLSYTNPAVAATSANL

IC50 [1]	IC50 [3]	IC50 [4]	Compound	IC50 [2]	Kd [5]	Km [6]	Kd [7]
0.59 µM	0.22 µM	0.056 µM	Nc1ccn([C@@H]2O[C@H](CO)[C@@H](O)C2(F)F)c(=O)n1 [Gemcitabine]	0.29 µM	–	–	–
0.0012 µM	0.00077 µM	0.00055 µM	CC(=O)O[C@@]12CO[C@@H]1C[C@H](O)[C@@]1(C)C(=O)[C@H](O)C3=C(C)[C@@H](OC(=O)[C@H](O)[C@@H](NC(=O)OC(C)(C)C)c4ccccc4)C[C@@](O)([C@@H](OC(=O)c4ccccc4)[C@H]21)C3(C)C [Docetaxel]	0.026 µM	–	–	–
–	–	–	Nc1nc2ncc(CNc3ccc(C(=O)N[C@@H](CCC(=O)O)C(=O)O)cc3)nc2c(=O)[nH]1 [folates, Folic acid]	–	~0.1 nM	~1 µM	–
–	–	–	synthetic peptide YCAREPPTRTFAYWG (SEQ ID NO: 9), specific ligand of mucin-1 [EPPT1]	–	–	–	20000 nM
